# Assay results taken from patent US5545738A, “Alfuzosin hydrochloride dihydrate” (Synthelabo, priority 1993, dated 1996).
# Where a name gives a salt, the structure may show the parent alone.
# Experiments:
# [1] = Hygroscopicity Test (25 °C, various relative humidities, 10 days); type: physicochemical
# Procedure: A 0.2 g-portion of a sample of each of the anhydrous form and respective hydrates of alfuzosin hydrochloride was placed in a desiccator containing a saturated solution of the salts listed hereunder (at 25° C.), and the relationship between the relative humidity at which the hydrated states of the respective compounds become. stable physically and the hygroscopicity of polymorphic hydrated forms of those compounds was investigated. The respective samples were brought to equilibrium by storage for 10 days under the respective conditions. For the setting up of the relative humidity (RH: %) was used a saturated solution of salts listed below:
# RH 0%, dry P2 O5; RH 11%, LiCl; RH 22%, CH3 COOK; RH 33%, MgCl2; RH 43%, K2 CO3.2H2 O; RH 53%, Mg(NO3)2; RH 64%, CoCl2.6H2 O; RH 75%, NaCl; RH 84%, KCl; RH 93%, KNO3; RH 100%, water.
# [2] = Test on Stability to Heating, Humidifying and Light; type: physicochemical; details: for stability, overall: conditions of table 1; for moisture content of crystal form: initial, before test
# Procedure: The stability test was carried out following the procedures described below.
# A 0.3 g-portion of each of the anhydrous form and respective hydrates of alfuzosin hydrochloride in crystal forms was placed in a glass bottle (sealed) and in a desiccator filled with a NaCl saturated solution, and preserved at 70° C. with a heater (Toyama Industry), after which the physicochemical stability of each compound was evaluated by X-ray powder diffraction and high performance liquid chromatography (HPLC).
# Separately, 0.3 g of each of the anhydrous form and respective hydrates of alfuzosin hydrochloride in crystal forms was placed in a plastic dish which was then covered with a polyvinylidene chloride film, followed by irradiation with a chemical lamp (dominant wavelength: 365 nm) for 24 hours, for the evaluation of the light stability in the same manner as in the above.
# HPLC apparatus (manufactured by Shimazu)
# Detection with UV (at 254 nm); column (Nucleosil 5C18, 150 mm×4 mm, M, Nagel; flow rate 1.0 ml/m; room temperature; eluent, NaClO4 (in 1000 ml of water, 7 g, pH 3.5)- acetonitrile-THF (155:55:45): internal standard, p-chloroacetanilide (0.5 mg/ml).
# [3] = Drying Test (moisture content and crystal state under drying conditions); type: physicochemical; details: for loss of water: 1 day
# Procedure: The moisture content was measured with Karl Fischer Aquameter (Kyoto Electron Industry, MK-AII) for about 100 mg of a sample dissolved in methanol for moisture measurement. In turn, the dehydration behavior of the crystal water was measured by thermogravimetry and differential thermal analysis using TG/DTA200 thermogravimetric apparatus and SSC5030 Disc Station (Seiko). Concretely, approximately 5 mg of a sample was weighed into an open aluminum pan and analyzed at a rate of temperature increase of 10° C./m or 1° C./m. This analysis was carried out in a nitrogen atmosphere (flow rate: 100 ml/m).
# Different from the hygroscopicity test mentioned above, the various hydrates of alfuzosin hydrochloride were kept under drying conditions for the monitoring of the change in moisture content.
# In this connection, simultaneously in the present test, also the crystal state of dried samples after a three-days' drying was investigated for the dihydrate of the present invention by X-ray powder diffraction under drying conditions, for comparison with patterns of X-ray powder diffraction under normal conditions.
# [4] = overall stability of crystal forms (tests 1-4); type: physicochemical; details: normal preservation (25° C., RH 40-80%) and heating (50°-60° C.); Hydrochloride Dihydrate
# [5] = Accelerated Test (100 °C and 120 °C, X-ray powder diffraction); type: physicochemical; details: for crystal form change: 2 hours
# Procedure: A 0.3 g-portion of each of the hydrates of alfuzosin hydrochloride was preserved in heaters (Sanyo) set to 100° C. and 120° C., for the confirmation of the stability of the respective hydrates. The physical stability of the respective samples was confirmed by X-ray powder diffraction.
# In this test, the crystal state of the respective hydrates was monitored by X-ray powder diffraction every 30 minutes for 2 hours.
# [6] = as above; type: physicochemical; details: 45 min.
# α1 -adrenergic receptor = details: cited from earlier work
# [7] = Chemical lamp (365 nm), 24 hours
# [8] = after 70° C., 9 days at RH 75%, hydrochloride
# [9] = after 70° C., 9 days, hydrochloride
# [10] = after chemical lamp (365 nm), 24 hours, hydrochloride
smiles,measurement,setting,value
"COc1cc2nc(N(C)CCCNC(=O)C3CCCO3)nc(N)c2cc1OC (centres unmarked) [Anhydrous, anhydrous alfuzosin hydrochloride]",relative humidity at which stable,"[1]; 25° C., 10 days",≤ 75%
same,equilibrium moisture content,"[1]; RH over 75%, 25° C.",12%
same,moisture content change at RH over 75%,"[1]; RH over 75%, 25° C.",increased significantly
same,"moisture content, equivalent moles of water","[1]; equilibrium, RH over 75%, 25° C.",3 moles of water
same,crystal form change on preservation,[1]; relative humidity exceeding 75%,"the crystal structure of the anhydrous formchanges, thereby providing a trihydrate"
same,stability,"[2]; 70° C., 9 days",Stable
same,stability,"[2]; 70° C., 9 days at RH 75%",Stable
same,stability,[2]; [7],Stable
same,moisture content,[2]; [8],0.7%
same,moisture content,[2]; [9],1.33%
same,moisture content,[2]; [10],0.66%
same,"stability, overall","[2]; listed as anhydrous form, hydrochloride",extremely stable
same,moisture content of crystal form,[2]; hydrochloride,0.1%
"COc1cc2nc(N(C)CCCNC(=O)C3CCCO3)nc(N)c2cc1OC (centres unmarked) [Dihydrate (DI), Alfuzosin Hydrochloride Dihydrate]",dehydration process,[3]; drying conditions,goes very slowly
same,change in moisture content,"[3]; drying conditions, 3 days",no significant change in moisture content
same,crystal form after drying,"[3]; three-days' drying, X-ray powder diffraction","retains its original crystal form, with some drop in degree of crystallization"
same,relative stability among crystal forms,[4],the stablest crystal form
same,time stable,[5]; 100° C.,≥ 2 h
same,time stable,[5]; 120° C.,≥ 0.75 h
same,stability,"[2]; 70° C., 9 days",Stable
same,stability,"[2]; 70° C., 9 days at RH 75%",Stable
same,stability,[2]; [7],Stable
same,moisture content,"[2]; after 70° C., 9 days at RH 75%, Hydrochloride Dihydrate",8.48%
same,moisture content,"[2]; after 70° C., 9 days, Hydrochloride Dihydrate",8.41%
same,moisture content,"[2]; after chemical lamp (365 nm), 24 hours, Hydrochloride Dihydrate",8.40%
same,"stability, overall",[2]; Hydrochloride Dihydrate,extremely stable
same,moisture content of crystal form,[2]; Hydrochloride Dihydrate,8.14%
"COc1cc2nc(N(C)CCCNC(=O)C3CCCO3)nc(N)c2cc1OC (centres unmarked) [Tetrahydrate (TETRA), alfuzosin hydrochloride tetrahydrate]",loss of water,[3]; drying conditions,lost most of the water in 1 day
same,crystal form change,[6],changed into the dihydrate
same,crystal form,"[5]; 100° C., 30 min.",TETRA + DI
same,crystal form change,[5]; 100° C.,changed into the dihydrate by degrees
same,DI content,"[2]; 70° C., 9 days",26%
same,TETRA content,"[2]; 70° C., 9 days",74%
same,DI content,"[2]; 70° C., 9 days at RH 75%",98%
same,TETRA content,"[2]; 70° C., 9 days at RH 75%",2%
same,moisture content,"[2]; after 70° C., 9 days",13.19%
same,moisture content,"[2]; after 70° C., 9 days at RH 75%",8.25%
same,moisture content,"[2]; after chemical lamp (365 nm), 24 hours",15.18%
same,"stability, overall",[2],"changed partially into the dihydrate, so they are considered unstable"
same,moisture content of crystal form,[2],14.93%
"COc1cc2nc(N(C)CCCNC(=O)C3CCCO3)nc(N)c2cc1OC (centres unmarked) [Trihydrate (TRI), trihydrate of alfuzosin hydrochloride]",loss of water,[3]; drying conditions,lost most of the water in 1 day
same,crystal form,[6]; hydrochloride,AN + DI + TRI
same,crystal form change,[6]; hydrochloride,"changed into a mixture of the anhydrous form, dihydrate and trihydrate"
same,crystal form,"[5]; 100° C., 30 min., hydrochloride",TRI
same,crystal form,"[5]; 100° C., 60 min., hydrochloride",TRI + DI
same,crystal form,"[5]; 100° C., 90 min., hydrochloride",TRI + DI
same,crystal form,"[5]; 100° C., 120 min., hydrochloride",TRI + DI
same,crystal form change,[5]; 100° C.,changed into the dihydrate by degrees
same,TRI content,"[2]; 70° C., 9 days",68%
same,TRI content,"[2]; 70° C., 9 days at RH 75%",84%
same,DI content,"[2]; 70° C., 9 days at RH 75%, hydrochloride",16%
same,DI content,"[2]; 70° C., 9 days, hydrochloride",37%
same,stability,[2]; [7],Stable
same,moisture content,[2]; [8],12.03%
same,moisture content,[2]; [9],11.05%
same,moisture content,[2]; [10],12.87%
same,"stability, overall",[2]; hydrochloride,"changed partially into the dihydrate, so they are considered unstable"
same,moisture content of crystal form,[2]; hydrochloride,12.75%
COc1cc2nc(N(C)CCCNC(=O)C3CCCO3)nc(N)c2cc1OC (centres unmarked) [alfuzosin hydrochloride],α1 -adrenergic receptor antagonism,α1 -adrenergic receptor,antagonist of α1 -adrenergic receptor
